Laboratory results as given in the NIST ThermoML archive (doi:10.1016/j.jct.2019.06.032).

Assay: xn = mol fraction of the nth substance listed
Settings: 101 kPa, Liquid; for viscosity: Capillary tube (Ostwald / Ubbelohde) method; for mass density: Vibrating tube method

CCN(CC)CCO [(diethylamino)ethanol] + NCCO
Settings | mass density, 293.15 K [kg/m3] | mass density, 303.15 K [kg/m3] | mass density, 313.15 K [kg/m3] | mass density, 323.15 K [kg/m3] | mass density, 333.15 K [kg/m3] | viscosity, 293.15 K [mPa·s] | viscosity, 303.15 K [mPa·s] | viscosity, 313.15 K [mPa·s] | viscosity, 323.15 K [mPa·s] | viscosity, 333.15 K [mPa·s]
x2 = 0 | 891.2 | 874.4 | 865.4 | 856.4 | 845.6 | 4.848 | 3.41 | 2.466 | 1.855 | 1.431
x2 = 0.1003 | 897.2 | 881.4 | 869.8 | 859.4 | 849.2 | 6.52 | 3.543 | 2.619 | 1.952 | 1.568
x2 = 0.2004 | 906.9 | 892.2 | 881.6 | 871.1 | 861 | 8.275 | 3.892 | 2.982 | 2.149 | 1.746
x2 = 0.2993 | 920.7 | 906.2 | 897.8 | 887.6 | 879.7 | 10.42 | 4.495 | 3.501 | 2.658 | 2.107
x2 = 0.4003 | 931.6 | 918 | 910.5 | 901.2 | 891.8 | 12.32 | 5.526 | 4.04 | 2.925 | 2.426
x2 = 0.5001 | 941 | 929.9 | 920.1 | 910.2 | 902.3 | 13.76 | 6.483 | 4.629 | 3.314 | 2.767
x2 = 0.6001 | 952.2 | 942.1 | 935 | 926.9 | 915.8 | 15.98 | 7.382 | 5.072 | 3.651 | 3.007
x2 = 0.7007 | 965.8 | 954.2 | 944.6 | 935.9 | 927.9 | 17.27 | 8.567 | 5.754 | 4.046 | 3.273
x2 = 0.8001 | 981.8 | 971.6 | 963 | 954.3 | 946.2 | 19.77 | 10.57 | 7.21 | 4.954 | 3.651
x2 = 0.9 | 999.8 | 991.5 | 982.7 | 974.3 | 965.5 | 22.75 | 13.44 | 8.826 | 6.018 | 4.413

CCN(CC)CCO [(diethylamino)ethanol] + O
Settings | mass density, 293.15 K [kg/m3] | mass density, 303.15 K [kg/m3] | mass density, 313.15 K [kg/m3] | mass density, 323.15 K [kg/m3] | mass density, 333.15 K [kg/m3] | viscosity, 293.15 K [mPa·s] | viscosity, 303.15 K [mPa·s] | viscosity, 313.15 K [mPa·s] | viscosity, 323.15 K [mPa·s] | viscosity, 333.15 K [mPa·s]
x1 = 0.1001 | 982 | 974.2 | 966.6 | 958.5 | 950.1 | 7.938 | 5.548 | 3.741 | 2.623 | 1.94
x1 = 0.2005 | 962.4 | 953 | 944.3 | 935 | 925.6 | 17.02 | 10.01 | 6.284 | 4.233 | 2.937
x1 = 0.2997 | 946.6 | 936.8 | 926.9 | 917.5 | 907.6 | 20.5 | 11.01 | 7.194 | 4.584 | 3.15
x1 = 0.3978 | 933.4 | 923.2 | 913.9 | 903.7 | 893.9 | 20.32 | 9.991 | 6.145 | 4.058 | 2.963
x1 = 0.4997 | 922.2 | 912 | 901.8 | 892 | 882.4 | 17.73 | 9.074 | 5.477 | 3.605 | 2.593
x1 = 0.5992 | 914.4 | 903.2 | 892.8 | 882.3 | 872.5 | 14.8 | 8.421 | 5.078 | 3.05 | 2.4
x1 = 0.6897 | 906.3 | 894.8 | 884.2 | 873.9 | 864.7 | 12.42 | 7.125 | 4.663 | 2.692 | 2.102
x1 = 0.7997 | 899.6 | 887.4 | 876.9 | 867.4 | 857.3 | 9.723 | 6.002 | 3.878 | – | 1.794
x1 = 0.8997 | 895.5 | 880.8 | 870.7 | 861.4 | 851.9 | 7.341 | 4.868 | 3.402 | 2.141 | 1.619
x1 = 1 | 891.2 | 874.4 | 865.4 | 856.4 | 845.6 | 4.848 | 3.41 | 2.466 | 1.855 | 1.431

NCCO [2-aminoethan-1-ol] + O
Settings | mass density, 293.15 K [kg/m3] | mass density, 303.15 K [kg/m3] | mass density, 313.15 K [kg/m3] | mass density, 323.15 K [kg/m3] | mass density, 333.15 K [kg/m3] | viscosity, 293.15 K [mPa·s] | viscosity, 303.15 K [mPa·s] | viscosity, 313.15 K [mPa·s] | viscosity, 323.15 K [mPa·s] | viscosity, 333.15 K [mPa·s]
x1 = 0.1 | 1010.9 | 1007 | 1002.5 | 997.4 | 991.7 | 2.669 | 1.953 | 1.495 | 1.147 | 0.903
x1 = 0.1999 | 1021.1 | 1016 | 1010.6 | 1004.4 | 998 | 5.763 | 3.976 | 2.388 | 1.819 | 1.429
x1 = 0.2998 | 1027.1 | 1021 | 1014.3 | 1007.5 | 1000.5 | 10.28 | 6.221 | 4.011 | 3 | 2.268
x1 = 0.4 | 1029.4 | 1022.6 | 1015.5 | 1008.3 | 1000.8 | 15.22 | 9.814 | 6.589 | 4.621 | 3.387
x1 = 0.4998 | 1029.3 | 1022 | 1014.6 | 1007 | 999.4 | 19.75 | 12.4 | 8.077 | 5.671 | 4.071
x1 = 0.5995 | 1028.1 | 1020.3 | 1012.7 | 1004.9 | 997 | 22.83 | 14.17 | 9.474 | 6.412 | 4.784
x1 = 0.6982 | 1026.3 | 1018 | 1010.4 | 1002.8 | 994.9 | 24.37 | 15.25 | 10.05 | 7.035 | 4.978
x1 = 0.7974 | 1023.8 | 1015.1 | 1007.1 | 999.4 | 991.5 | 25.19 | 15.62 | 10.09 | 7.169 | 5.014
x1 = 0.8995 | 1021.2 | 1013 | 1005.1 | 997.2 | 988.1 | 24.62 | 15.17 | 10.08 | 7.12 | 5.001
x1 = 1 | 1016.9 | 1009.5 | 1001.1 | 992.7 | 984.3 | 23.79 | 14.83 | 9.89 | 6.872 | 4.99
